From patent US20220235029A1, “CRYSTAL FORM OF C-MET/AXL INHIBITOR” (MEDSHINE DISCOVERY INC., priority 2019, published 2022)

What was measured:
[1] = Study on the hygroscopicity (DVS detection); assay type: physicochemical; details: 25° C./80% RH
Protocol: Dynamic Vapor Sorption (DVS) Instrument in the Present Disclosure
Instrument model: DVS Advantage-1 (SMS)
Detection condition: about 10-15 mg of the sample was used for DVS detection.
Equilibrium: dm/dt=0.01%/min: (time: 10 min, longest: 180 min)
RH (%) gradient for testing: 10%
RH (%) gradient range for testing: 0%-90%-0%
The hygroscopicity was evaluated using the judgment criterias in the following Table 6: […]

[2] = system: MKN45 gastric cancer cell line; experiment: Cell proliferation inhibition experiment (CellTiter-Glo); assay type: cell-based
Protocol: Reagents and Consumables:
The cell plates were incubated in a carbon dioxide incubator for 3 days.

[3] = system: human Hs746t gastric cancer cell xenograft tumor model; experiment: In vivo pharmacodynamic study, Hs746t gastric cancer cell xenograft tumor model; design: species or system BALB/c nude mice; details: for Tumor volume (mm^3) (20th day): average value ± SEM, Hs746t xenograft in BALB/c nude mice; for T/C (%) / TGI (%): calculated based on the tumor volume on the 21st day after administration
Protocol: Human gastric cancer HS 746T cells were cultured in a single layer in vitro. The culturing condition was DMEM medium supplemented with 10% fetal bovine serum, 100 U/mL penicillin and […] in 37° C., 5% CO2 incubator. Digestion and passage treatment with trypsin-EDTA was carried out twice a week. When the cell saturation was 80%-90% and the number reached the required level, the cells were collected, counted and seeded.
BALB/c nude mice, male. 6-8 weeks old, weighting 18-22 g.
0.2 mL (2×10^6, cells:Matrigel=1:1) HS 746T cells were inoculated subcutaneously on the right back of each mouse. The drug was administered in groups when the average tumor volume reached approximately 100-150 mm^3.
Experimental index: The experimental index was whether the tumor growth was inhibited, delayed or cured. The diameters of the tumor were measured twice a week using a vernier caliper. The formula for calculating the tumor volume is V=0.5a×b^2, a and b represent the long and short diameters of the tumor respectively. The antitumor effect (TGI) of the compound was evaluated by T-C (days) and T/C (%).

In the case of `CN(C)C(=O)Nc1cc(Oc2ccc(NC(=O)c3cn(CC4CC4)c(=O)n(-c4ccc(F)cc4)c3=O)cc2F)ccn1`, the Classification of hygroscopicity [1] is reported as “slightly hygroscopic”, the “Hygroscopic weight gain at 25/80% RH” value [1] is reported as 0.2801% and the “inhibitory activity on MKN45 cell (in words)” value [2] is reported as “good inhibitory activity”.
With `CN(C)C(=O)Nc1cc(Oc2ccc(NC(=O)c3cn(CC4CC4)c(=O)n(-c4ccc(F)cc4)c3=O)cc2F)ccn1.Cc1ccc(S(=O)(=O)O)cc1` the Classification of hygroscopicity [1] was “slightly hygroscopic” and the “Hygroscopic weight gain at 25/80% RH” value [1] was 0.999%.
With `CCOc1ccn(-c2ccc(F)cc2)c(=O)c1C(=O)Nc1ccc(Oc2ccnc(N)c2Cl)c(F)c1` [BMS777607] the “Tumor volume (mm^3) (20th day)” value [3] was 1872 ± 355 mm^3, the “T/C (%)” value [3] was 27.61% and the “TGI (%)” value [3] was 73.58%.
In the case of `CN(C)C(=O)Nc1cc(Oc2ccc(NC(=O)c3cn(CC4CC4)c(=O)n(-c4ccc(F)cc4)c3=O)cc2F)ccn1` [Compound represented by formula (I)], the “tumor inhibitory effect (in words)” value ([3]; Hs746t gastric cancer cell xenograft tumor model) is reported as “better tumor inhibitory effect than BMS777607 and LY2801653”, the “Tumor volume (mm^3) (20th day)” value [3] is reported as 4 ± 2 mm^3 and the “T/C (%)” value [3] is reported as 104.82%. The “TGI (%)” value [3] was 0.15%.
In the case of `Cc1ccc(C(=O)Nc2ccc(Oc3cc4cnn(C)c4cc3-c3cn[nH]c3)c(F)c2)c(=O)n1-c1ccc(F)cc1` [LY2801653], the “Tumor volume (mm^3) (20th day)” value [3] is reported as 88 ± 13 mm^3, the “T/C (%)” value [3] is reported as 101.62% and the “TGI (%)” value [3] is reported as 3.45%.
